# PMC10714334, “Developing multispecies quorum-sensing modulators based on the Streptococcus mitis competence-stimulating peptide” (The Journal of Biological Chemistry, 2023)
# Non-standard residues stand in square brackets, D forms with d. Residues, ends and D or L forms follow the SMILES beside them. No end group written: not given here.
# What was measured:
# [1] = test system: defibrinated rabbit red blood cells; assay: hemolysis assay; assay type: cell-based; details: mean ± S.D., SD
# Experimental: A single colony of S. mitis ATCC 49456 was grown for 16 h at 37 °C with 5% CO2 in 5 mL THY media (pH 7.3). Overnight cultures were then diluted 1:10 in fresh THY media. Samples were prepared in clear bottom 96 -well microtiter plates. Experimental samples were prepared by adding 196 µL of the 1:10 diluted culture and 2 µL of a 1 mM S. mitis-CSP-2 and the lead S. mitis-CSP-2 analogs (lead activator, S. mitis-CSP-2-n11, and lead inhibitor, S. mitis-CSP-2-E1Af10r16), or 196 µL of fresh THY media and 2 µL of a 1 mM S. mitis-CSP-2/ S. mitis-CSP-2 analog stock.
# Two µL of DMSO was added to each well. A positive control was prepared by adding 2 µL of a 1% Triton X solution and 2 µL of DMSO in 196 µL THY media, and negative controls were prepared by adding 4 µL DMSO in either 196 µL 1:10 diluted culture or 196 µL THY media. The 96-well microtiter plate was then incubated for 2 h at 37 °C with 5% CO 2, after which the optical density at 600 nm (OD600) was recorded and hemolysis was assessed. A 1 mL portion of defibrinated rabbit red blood cells ( VWR International) was aliquoted into a sterile 1.5 mL microcentrifuge tube, and centrifuged at 2,000 rpm for 2 min. Following centrifugation, the top layer was aliquoted off, and red blood cells were gently washed with sterile1 mL 1X PBS. This process was repeated for a total of three times, until following centrifugation the top layer was mostly clear. Washed red blood cells were resuspended in sterile 1 mL 1X PBS solution, and a 15 µL aliquot was added to each well of the 96 -well microtiter plate. The plate was then incubated for 30 min at 37 °C. Following incubation, the plate was centrifuged for 4 min at 4 °C at 1600 rpm .
# Experimental wells were then diluted 1:5 in distilled water to prevent saturation of the detector by the positive control. The absorbance at 420 nm (OD420) was then measured for each well.
# Experiments were performed in triplicate on three separate days. Data are presented as the percent hemolysis relative to the .01% Triton X positive control. Results are expressed as the mean +/ - the standard deviation of three independent experiments. […]
# [2] = test system: pneumococcus ComD2 receptor; details: cited from earlier work
# From the text: (§1) Table 5 EC50 or IC50 values of select Streptococcus mitis-CSP-2–based pneumococcal QS modulators against the pneumococcus ComD1 and ComD2 and the S. mitis ComD-2 receptors ^a | column: Streptococcus pneumoniae ^b / ComD2 / EC50 or IC50∗ (nM) || In our previous work, we utilized the S. mitis-CSP-2 scaffold to develop analogs capable of modulating the two pneumococcal ComD receptors at low nanomolar concentrations ([2]). We wanted to evaluate whether the optimization of the S. mitis-CSP-2 scaffold to the pneumococcus ComD receptors affected the ability of the modified analogs to interact with the S. mitis ComD-2 receptor.
# S. mitis ComD-2 receptor = assay: luminescence reporter competitive inhibition assay (comX expression); assay type: cell-based, Streptococcus mitis; details: same reporter strain; competition against 1 μM native S. mitis-CSP-2; 30 min at 37 °C; triplicate on three separate days
# Experimental: As a positive control, 2 μl of S. mitis-CSP-2 and 2 μl of DMSO were added to the same well in triplicate. As a negative control, 4 μl of DMSO was added in triplicate. Then, 2 μl of 15 mg/ml D-luciferin in distilled water was added to each experimental or control well, after which 194 μl of bacteria was added, and the plate was incubated for 30 min at 37 °C. Following incubation, the A600 and luminescence of each experimental well were measured. Results were reported as percent activation, which is the ratio between the luminescence (presented as relative luminescence units, RLU/A600) of the analog and that of the positive control. […] GraphPad Prism was used to calculate the IC50 values, which are the concentration of inhibitor where the response (or binding) is reduced by half. Experiments were performed in triplicate on three separate days.
# Antagonism assays were performed at 10 μM concentration of peptides against 1 µM concentration of S. mitis-CSP-2. S. mitis-CSP-2 (1 µM) was used as the positive control (100%) while DMSO as the negative control (0%). For all figures, comX expression is presented as relative luminescence units (RLU) divided by measured cultural optical density (OD). Percent (%) ComD activation was measured by normalizing the RLU/OD value obtained for each peptide to that of the native S. mitis-CSP-2. The results are averages from three replicates and representative of three independent experiments. Error bars represent the standard error of the mean of nine values.
# Figure S-8. Primary antagonism screening assay data for t he S. mitis-CSP-2 alanine scan and D-amino acid […]
# determine its IC50 value.
# Figure S-9. Primary antagonism screening assay data for t he S. mitis-CSP-2 truncated analogs . S. mitis- […]
# [3] = test system: pneumococcus ComD1 receptor; details: cited from earlier work
# From the text: as §1, with “/ ComD1” for “/ ComD2”
# [4] = peptide alone with S. mitis ATCC 49456 culture
compound,measurement,setting,value
CC[C@H](C)[C@H](NC(=O)[C@H](C)N)C(=O)N[C@@H](CCCNC(=N)N)C(=O)N[C@@H](CCC(N)=O)C(=O)N[C@H](C(=O)N[C@@H](Cc1c[nH]cn1)C(=O)N[C@@H](CC(N)=O)C(=O)N[C@H](C(=O)N[C@@H](Cc1ccccc1)C(=O)N[C@H](Cc1ccccc1)C(=O)N[C@@H](CC(N)=O)C(=O)N[C@@H](Cc1ccccc1)C(=O)N[C@@H](Cc1ccccc1)C(=O)N[C@@H](CCCCN)C(=O)N[C@@H](CCCNC(=N)N)C(=O)N[C@H](CCCNC(=N)N)C(=O)O)[C@@H](C)CC)[C@@H](C)O [S. mitis-CSP-2-E1Af10r16] (H-AIRQTHNIF[dF]NFFKR[dR]-OH),hemolysis relative to Triton X positive control,"[1]; inhibitor together with S. mitis-CSP-2, with S. mitis ATCC 49456 culture",-3.1% ±16%
same,hemolysis relative to Triton X positive control,[1]; inhibitor together with S. mitis-CSP-2 in THY media,-2.3% ±7.0%
same,hemolysis relative to Triton X positive control,[1]; [4],-6.9% ±19%
CC[C@H](C)[C@H](NC(=O)[C@H](CC(N)=O)NC(=O)[C@H](Cc1c[nH]cn1)NC(=O)[C@@H](NC(=O)[C@H](CCC(N)=O)NC(=O)[C@H](CCCNC(=N)N)NC(=O)[C@@H](NC(=O)[C@@H](N)CCC(=O)O)[C@@H](C)CC)[C@@H](C)O)C(=O)N[C@@H](Cc1ccccc1)C(=O)N[C@@H](Cc1ccccc1)C(=O)N[C@H](CC(N)=O)C(=O)N[C@@H](Cc1ccccc1)C(=O)N[C@@H](Cc1ccccc1)C(=O)N[C@@H](CCCCN)C(=O)N[C@@H](CCCNC(=N)N)C(=O)N[C@@H](CCCNC(=N)N)C(=O)O [S. mitis-CSP-2-n11] (H-EIRQTHNIFF[dN]FFKRR-OH),hemolysis relative to Triton X positive control,[1]; [4],-9.8% ±30%
"CC(C)(C)CC(C)(C)c1ccc(OCCO)cc1 [Triton X, reference compound]","hemolysis, positive control",[1]; 0.01% Triton X in THY media,100% ± 15%
AIRQTHNIFFFLFKRR [S. mitis-CSP-2-E1AN11FF12L],inhibitory activity against S. pneumoniae ComD2 receptor,[2],no inhibitory activity
same,IC50,S. mitis ComD-2 receptor,> 1000 nM
same,inhibitory activity against S. pneumoniae ComD1 receptor,[3],no inhibitory activity
"EIRQTHNIFFNFFKRR [S. mitis-CSP-2, reference compound]",hemolysis relative to Triton X positive control,[1]; [4],-9.6% ±24%
